Tested on: S. aureus
Experiment: Inhibition of RIND IX reduction by various cyclic polypeptide antibiotics
Assay type: cell-based, Staphylococcus aureus
Settings: 635 nm
Experimental: The following materials were used in this example: stock solutions of RIND IX compound dispersion prepared as described above, glucose (10% in water), trimethyl-1,4-benzoquinone ETA (1.5 mg/ml methanol), and the antibiotics (1 mg/ml in dimethylsulfoxide). S. aureus cells were grown as described above. The final cell concentration in the assay mixture was about 4.3×10^8 cells/ml.
Test solutions were prepared by adding in the order: 1.2 ml of HEPES buffer, 50 μl glucose solution, 1.5 ml of RIND IX dispersion, 100 μl of antibiotic solution, 100 μl of cell suspension and 25 μl of ETA solution. Control solutions were prepared as described in Examples 2 and 3. Optical density readings (OD) were measured at 635 nm at 0 minutes and after incubation at 37° C. for 30 minutes for test and control solutions, and the change in density (ΔOD) was determined. Table VI below lists the results, expressed as corrected percent inhibition of the reduction of the RIND compound. The corrected percent inhibition is calculated by dividing the difference between the ΔOD obtained from the Cell Control without antibiotic and the ΔOD of the test solution, by ΔOD of the Cell Control without antibiotic. All readings were corrected by subtracting readings of the appropriate background Controls.
Solutions containing 2.9 ml HEPES, 50 μl of the antibiotic solution and 100 μl cell solution were incubated at 37° C. for 30 minutes, centrifuged for 10 minutes and decanted. The resulting pellet was then treated with 1.4 ml HEPES, 50 μl glucose solution, 1.5 ml RIND IX dispersion and 25 μl ETA solution, mixed well and the densities recorded as described above in Method 1. The corrected percent inhibition data was calculated as described in Method 1 above.

[1] = Test Method 1 (antibiotic in the test solution), S. aureus about 4.3×10^8 cells/ml, 100 μl of 1 mg/ml antibiotic solution, 30 minutes at 37° C.

| Compound | Corrected % Inhibition [1] | Corrected % Inhibition (Test Method 2 (cells preincubated with 50 μl antibiotic solution 30 minutes, centrifuged, pellet assayed), S. aureus) |
| --- | --- | --- |
| CN[C@H](CC(C)C)C(=O)N[C@H]1C(=O)N[C@@H](CC(N)=O)C(=O)N[C@H]2C(=O)N[C@H]3C(=O)N[C@H](C(=O)N[C@H](C(=O)O)c4cc(O)cc(O)c4-c4cc3ccc4O)[C@H](O)c3ccc(c(Cl)c3)Oc3cc2cc(c3O[C@@H]2O[C@H](CO)[C@@H](O)[C@H](O)[C@H]2O[C@H]2C[C@](C)(N)[C@H](O)[C@H](C)O2)Oc2ccc(cc2Cl)[C@H]1O [Vancomycin, vancomycin] | No Inhibition |  |
| virginiamycin |  | No Inhibition |
| ristocetin | No Inhibition |  |

— patent US4912036A, “Rapid differentiation of bacteria using cyclic polypeptide antibiotics” (Eastman Kodak Company, priority 1986, dated 1990)
